Experimental findings from PMC9788418, “Design, Synthesis and Biological Evaluation of Syn and Anti-like Double Warhead Quinolinones Bearing Dihydroxy Naphthalene Moiety as Epidermal Growth Factor Receptor Inhibitors with Potential Apoptotic Antiproliferative Action” (Molecules, 2022) are described below.

In one test the test system is Bcl-2. In words: Bcl-2 inhibition assay. Format: cell-based, human. The protocol:
4.2.5. Bcl-2inhibition assay
Mix all reagents thoroughly without foaming before use. Wash the microwells twice with approximately 300 μL Wash Buffer per well with thorough aspiration of microwell contents between washes. Take caution not to scratch the surface of the microwells. After the last wash, empty the wells and tap microwell strips on absorbent pad or paper towel to remove excess Wash Buffer. Use the microwell strips immediately after washing or place upside down on a wet absorbent paper for not […]
longer than 15 minutes. […] Add 100 μL of Sample Diluent in duplicate to all standard wells and to the blank wells. Prepare standard (1:2 dilution) in duplicate ranging from 32 ng/mL to 0.5 ng/mL. Add 100 μL of Sample Diluent, in duplicate, to the blank wells. Add 80 μL of Sample Diluent, in duplicate, to the sample wells. Add 20 μL of each Sample, in duplicate, to the designated wells. Add 50 μL of diluted biotin-conjugate to all wells, including the blank wells. Cover […]
Remove plate cover and empty the wells. […]
(§1) plate cover and incubate at room temperature, on a microplate shaker at 100 rpm if available, for 1 hour. Remove plate cover and empty the wells. Wash microwell strips 3 times as described in step 2.
(§2) Proceed to the next step. Pipette 100 μl of mixed TMB Substrate Solution to all wells, including the […]
available on a rotator set at 100 rpm. Avoid direct exposure to intense light. The point, at which the substrate reaction is stopped, is often determined by the ELISA reader. Many ELISA readers record absorbance only up to 2.0 O.D. Therefore, the color development within individual microwells must be watched by the person running the assay and the substrate reaction stopped before positive wells are no longer properly detectable. Stop the enzyme reaction by quickly pipetting 100 μL of Stop Solution into each well, including the blank wells. It is important that the Stop Solution is spread quickly and uniformly throughout the microwells to completely inactivate the enzyme. Results must be read immediately after the Stop Solution is added or within one hour if the microwell strips are stored at 2 - 8°C in the dark. Read absorbance of each microwell on a spectrophotometer using 450 nm as the primary wave length. […]

The test system of a further test is Cytochrome C. The test is described as follows: Cytochrome C assay. The class given is cell-based, human. The protocol:
The concentration of Cytochrome c in a cell is crucial for activating caspases and starting the intrinsic apoptosis process. […]
as §1, §2
available on a rotator set at 100 rpm. Avoid direct exposure to intense light. The point, at which the substrate reaction is stopped, is often determined by the ELISA reader. Many ELISA readers record absorbance only up to 2.0 O.D. Therefore, the color development within individual microwells must be watched by the person running the assay and the substrate reaction stopped before positive wells are no longer properly detectable. Stop the enzyme reaction by quickly pipetting 100 μL of Stop Solution into each well, including the blank wells. It is important that the Stop Solution is spread quickly and uniformly throughout the microwells to completely inactivate the enzyme. Results must be read immediately after the Stop Solution is added or within one hour if the microwell strips are stored at 2 - 8°C in the dark. Read absorbance of each microwell on a spectrophotometer using 450 nm as the primary wave length.
4.2.6. Cytochrome C assay […]
cytochrome C, and lysed with Cell Extraction Buffer. This lysate was diluted in Standard Diluent Buffer over the range of the assay and measured for cytochrome C content. (Cells are Plated in cells/well in a volume of 100µl complete growth medium + 100 µl of the tested compound + 50 µl of 1X biotin conjugated antibody+ 100 µl of 1X streptavidin-HRP+ 100 µL TMB substrate soln of per well in a 96-well plate for 24 hours before assay).
4.3. Statistical analysis
Computerized Prism 5 program was used to statistically analyzed data using one-way ANOVA test followed by Tukey’s as post ANOVA for multiple comparison at P ≤.05. Data were presented as […]

For a further test, the system named is Bax. In words: Bax activation assay. Format: cell-based, human. The note with it: for Bax Conc: A-549. The method, then:
8, and lysed with Cell Extraction Buffer. This lysate was diluted in Standard Diluent Buffer over the range of the assay and measured for human active caspase-8 content. (cells are Plated in a density of 1.2 – 1.8 × 10,000 cells/well in a volume of 100µl complete growth medium + 100 ul of the tested compound per well in a 96-well plate for 24 hours before the enzyme assay for […].). […]
4.2.4. Bax activation assay
Bring all reagents, except the human Bax-α Standard, to room temperature for at least 30 minutes prior to opening. The human Bax-α Standard solution should not be left at room temperature for more than 10 minutes. All standards, controls and samples should be run in duplicate. Refer to the Assay Layout Sheet to determine the number of wells to be used and put any remaining wells with the desiccant back into the pouch and seal the ziploc. Store unused wells at 4 °C. Pipet 100 μL of Assay Buffer into the S0 (0 pg/mL standard) wells. Pipet 100 μL of Standards #1 through #6 into the appropriate wells. Pipet 100 μL of the Samples into the appropriate wells. Tap the plate gently to mix the contents. Seal the plate and incubate at room temperature on a plate shaker for 1 hour at ~500 rpm. Empty the contents of the wells and wash by adding 400 μL of wash solution to every well.
Repeat the wash 4 more times for a total of 5 washes. After the final wash, empty or aspirate the wells and firmly tap the plate on a lint free paper towel to remove any remaining wash buffer. Pipet 100 μL of yellow Antibody into each well, except the Blank. Seal the plate and incubate at room temperature on a plate shaker for 1 hour at ~500 […]
wells and firmly tap the plate on a lint free paper towel to remove any remaining wash buffer. Add […]
100 μL of blue Conjugate to each well, except the Blank. Seal the plate and incubate at room temperature on a plate shaker for 30 minutes at ~500 rpm. Empty the contents of the wells and wash by adding 400 μL of wash solution to every well. Repeat the wash 4 more times for a total of 5 washes. After the final wash, empty or aspirate the wells and firmly tap the plate on a lint free paper towel to remove any remaining wash buffer. Pipet 100 μL of Substrate Solution into each well.
Incubate for 30 minutes at room temperature on a plate shaker at ~500 rpm. Pipet 100 μL Stop Solution to each well. Blank the plate reader against the Blank wells, read the optical density at 450 nm. Calculate the average net Optical Density (OD) bound for each standard and sample by subtracting the average Blank OD from the average OD for each standard and sample. Using linear graph paper, plot the Average Net OD for each standard versus Bax concentration in each standard.
Approximate a straight line through the points. The concentration of Bax in the unknowns can be determined by interpolation. […]

For a further test, the system named is caspase-9. In words: Caspase-9 level assay. The class given is cell-based, human. The method, then: The impact of compounds 4a and 4b on caspase-8 and caspase-9 was also assessed to clarify how compounds 4a and 4b induce apoptosis by activating the intrinsic or extrinsic route.
In a further test the test system is caspase-3. In words: Caspase-3 activation assay.
A further test relates to caspase-8. In words: Caspase-8 activation assay. Format: cell-based, human.
The mark [1] stands for this setting: A-549, vs control untreated cells.

Method for caspase-3: record autophosphorylation level, EGFR kinase assay was carried out based on DELFIA/Time-
Resolved Fluorometry. The compounds were first dissolved in DMSO absolute, after dilution to
Each compound (10 µL) was incubated
with recombinant enzyme (10 µL, 5 ng for EGFR, 1:80 dilution in 100 mM HEPES) for 10 min at
25 °C, after the addition of 5X buffer (10 µL, containing 2 mM MnCl2, 100 µM Na3VO4, 20 mM HEPES and 1 mM DTT) and ATP-MgCl2 (20 µL, containing 0.1 mM ATP and 50 mM MgCl2) and
incubation for 1h. The negative and positive controls were included in each plate by the incubation
of enzyme either with or without ATP-MgCl2. The liquid was removed after incubation and the plates
were washed thrice using wash buffer. Europium-tagged antiphosphotyrosine antibody (75 µL, 400
ng) was added to each well followed by incubation of 1h and then washing of the plates using buffer.
The enhancement solution was added to each well and the signal was recorded at excitation and
The autophosphorylation percentage inhibition by compounds was calculated using the following equation:

With `COc1cccc2c1C(=O)c1c(O)c3c(c(O)c1C2=O)C[C@@](O)(C(=O)CO)C[C@@H]3O[C@H]1C[C@H](N)[C@H](O)[C@H](C)O1` [Doxorubicin, reference compound], in the test on Bcl-2 (A-549), the “Bcl-2 Conc” value worked out at 1.98 ng/mL. For the same molecule, the “Bcl-2 Fold Reduction” value in the test with Bcl-2 (A-549, vs control) turned out to be 2.5. In addition, the “Cytochrome C Conc” value in the test with Cytochrome C (A-549) is 0.60 ng/mL. Also, the “Cytochrome C Fold Change” value with Cytochrome C (A-549, vs control) worked out at 12. Also, the “Bax Conc” value is 276.20 pg/mL with Bax and 276 pg/mL in the test on Bax (listed as doxorubicin). Moreover, the “Bax Fold Change” value with Bax (setting [1]) worked out at 33. In addition, the “Caspase-9 Conc” value with caspase-9 is listed as 16.25 ng/mL. For the same molecule, in the test on caspase-9 (vs control cells), the “Caspase-9 Fold Change” value came to 17.00. Further, in the test on caspase-3 (A-549), the “Caspase-3 Conc” value is given as 503.25 ± 4.50 pg/mL. Moreover, the “Caspase-3 Fold Change” value in the test on caspase-3 (setting [1]) came out at 7.70. For the same molecule, the “Caspase-8 Conc” value with caspase-8 stood at 1.80 ng/mL. In addition, in the test with caspase-8 (vs control cells), the “Caspase-8 Fold Change” value is 9.
